Literature values in patent US20060293293A1, “Salmeterol and ciclesonide combination” (Altana Pharma AG, priority 2003, published 2006).

Columns and labels:
[1] = compared with budesonide

## CC(C)C(=O)OCC(=O)[C@@]12O[C@H](C3CCCCC3)O[C@@H]1C[C@H]1[C@@H]3CCC4=CC(=O)C=C[C@]4(C)[C@H]3[C@@H](O)C[C@@]12C [Ciclesonide, [11β,16α(R)]-16,17[(Cyclohexylmethylen)bis(oxy)]-11-hydroxy-21-(2-methyl-1-oxoprop-oxy)pregna-1,4dien-3,20-dion]
Liver oxidases
  metabolism by liver oxidases: very high
lungs
  concentration of the drug in the lungs: high
Oral administration
  absorption after oral administration: only moderately absorbed
plasma
  plasma half-life: low plasma half-life
[1]
  anti-inflammatory activity relative to budesonide: higher
  systemic activity relative to budesonide: three times lower
